SMILES strings stand for the structures.

The assay addresses T1, fibroblast activation protein alpha (FAP) (Homo sapiens, UniProt Q12884).
T1 construct: human FAP expressed on HEK293 cells (HEK293-hFAP)
T1 sequence (Q12884 1-760): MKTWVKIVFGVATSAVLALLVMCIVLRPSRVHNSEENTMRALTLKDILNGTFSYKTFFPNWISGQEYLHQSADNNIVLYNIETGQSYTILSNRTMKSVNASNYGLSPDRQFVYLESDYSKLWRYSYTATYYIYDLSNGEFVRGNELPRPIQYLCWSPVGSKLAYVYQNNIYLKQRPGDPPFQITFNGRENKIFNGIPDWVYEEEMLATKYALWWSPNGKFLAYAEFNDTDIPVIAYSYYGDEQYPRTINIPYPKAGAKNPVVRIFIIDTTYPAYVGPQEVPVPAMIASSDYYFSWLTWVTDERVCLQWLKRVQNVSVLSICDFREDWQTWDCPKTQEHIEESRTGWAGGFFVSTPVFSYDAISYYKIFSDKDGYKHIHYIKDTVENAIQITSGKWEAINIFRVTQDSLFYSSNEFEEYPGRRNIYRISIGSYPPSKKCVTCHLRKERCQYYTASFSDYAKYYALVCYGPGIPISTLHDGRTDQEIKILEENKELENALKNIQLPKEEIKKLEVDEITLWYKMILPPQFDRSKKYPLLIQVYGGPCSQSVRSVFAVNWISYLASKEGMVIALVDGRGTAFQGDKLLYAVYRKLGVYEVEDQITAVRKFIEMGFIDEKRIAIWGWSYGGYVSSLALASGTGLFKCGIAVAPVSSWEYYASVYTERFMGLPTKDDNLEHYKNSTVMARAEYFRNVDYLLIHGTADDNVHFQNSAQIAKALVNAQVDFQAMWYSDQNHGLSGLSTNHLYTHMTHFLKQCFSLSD
Kind of assay: competition (excess unlabeled FL) against FL-L1-FITC, FL-L1-S0456 and […]mTc-FL-L3 binding on HEK293-hFAP cells. It counts as cell-based.

Turning to `C[C@H](NC(=O)c1ccnc(CN)c1)C(=O)N1CC(F)(F)C[C@H]1C#N` [compound 8, FL], the “competition (excess unlabeled FL) against FL-L1-FITC, FL-L1-S0456 and 99mTc-FL-L” value is listed as “Blocking of FL-L1-FITC related fluorescence by unlabeled FAP ligand (FL), indicated FAP mediated uptake of FL-L1-FITC in HEK293-hFAP cells”.

Values taken from PMC7254991, “Design and validation of fibroblast activation protein alpha targeted imaging and therapeutic agents” (Theranostics, 2020).
